Test results from US5418219A, “Pharmaceutical composition for treatment of adult respiratory distress syndrome containing human ANP” (Suntory Limited, priority 1992, dated 1995).

How the values were obtained:
[1] = test system: pigs in which lung injury was induced; assay: Partial pressure of oxygen in arterial blood (PaO2) in pigs with HCl-induced pulmonary injury; type: in vivo, New Yorkshire male pigs; details: pig
Description: (§1) A Teflon catheter was inserted into the femoral artery of each animal for measuring blood pressure, blood ANP level and blood gas. At the same time, a pulmonary arterial cathether was inserted through the right cephalic vein for recording the changes in pulmonary arterial pressure. Pulmonary arterial pressure (PAP) and right atrial pressure (RAP) were measured with thermistor-tipped pressure transducers. Pulmonary capillary wedge pressure (PCWP) was measured with a baloon-fitted catheter. Cardiac output (CO) was calculated from the average of three measurements by the thermodilution method. Body temperature was measured with a thermistor inserted into the pulmonary artery and maintained at 37°-38° C. with the aid of a heat jacket. Electrocardiograms were induced from the four limbs and the ECC waveform and the number of heart beats were measured.

[2] = test system: pigs in which lung injury was induced; assay: Pulmonary arterial pressure (PAP) in pigs with HCl-induced pulmonary injury; type: in vivo, New Yorkshire male pigs; details: pig
Description: as §1

[3] = test system: pigs in which lung injury was induced; assay: Blood pressure (BP) in pigs with HCl-induced pulmonary injury; type: in vivo, New Yorkshire male pigs; details: pig
Description: as §1

[4] = test system: pigs in which lung injury was induced; assay: Urine excretion in pigs with HCl-induced pulmonary injury; details: pig, ANP versus furosemide
Description: New Yorkshire male pigs weighing 16-24 kg were used in all experiments. The animals were allowed neither food nor water for 44 hr before test. They were initially anesthetized by intravenous injection of pentobarbital sodium (2.0 mg/kg) and pancuronium bromide (0.1 mg/kg) and, thereafter, the anesthetization was maintained by sustained intravenous injection of pentobarbital sodium (0.5 mg/kg/hr) and pancuronium bromide (0.1 mg/kg/hr). The animals were placed in prone position and ventilated at a frequency of 17 breaths/min with a tidal volume of 10-15 ml/kg, with the partial pressure of oxygen in arterial blood (PaO2) being held at 35-45 Torr. Physiological saline (5 ml/kg) was initially infused by intravenous injection, followed by sustained intravenous injection for 30 min at a rate of 4 ml/kg/hr.
A cannula was inserted into the bladder of each animal and urine samples were collected at 30-min intervals. Blood sampling and hemodynamic measurements were also conducted at 30-min Intervals but intermediate between collections of urine samples. Blood samples for assaying blood α-hANP levels were collected into chilled glass tubes each containing EDTA (0.1 mg/ml) and aprotinin (500 KIU/ml). […] Plasma α-hANP levels were measured by the RIA method using a rabbit anti α-hANP antibody. […]

[5] = baseline (before HCl aspiration)

For `NS(=O)(=O)c1cc(C(=O)O)c(NCc2ccco2)cc1Cl` [furosemide], the “compensation of the decrease in PaO2 induced by HCl aspiration” value [1] was “could be compensated”, the PaO2 ([1]; 60 min after HCl aspiration (before drug administration)) was 120.5±33.1 mmHg and the PaO2 ([1]; 60 min after administration (180 min after HCl aspiration), control 171.1) was 287.9±78.2 mmHg. It also gave a PaO2 [1, 5] of 490.3±29.0 mmHg, a PAP ([2]; after 60 min of administration (120 min after HCl aspiration), control 18.9±2.4) of 20.4±2.3 mmHg and a PAP [2, 5] of 12.7±1.9 mmHg. The “BP lowering action / changes in BP” value [3] was “No significant changes” and the “intensity of diuretic action” value [4] was “comparable to each other”.
